This note sets out measurements from publication PMC9021288 (Nature Communications, 2022).

One data set relates to TA98, TA100, TA102, TA1535, TA1537.
Test: not given
The settings on record: TA98, -S-9, 5 ug/plate, positive control. The procedure: Safety studies were performed by commercial services using their standard protocols. […] Genotoxicity was investigated using the Ames test (Bacterial Reverse Mutation Assay) (Covance Laboratories Ltd, North Yorkshire, England). In vitro mammalian cell micronucleus screening assay was studied in human peripheral blood lymphocytes (BioReliance Corporation, Rockville, USA). Cardiotoxicity was determined against the hERG channel in an automated patch clamp assay using the Qpatch or against the hNaV 1.5, hKV 1.5 and hCaV 1.2 using a manual patch-clamp technique (Metrion Biosciences, Cambridge, UK). Cytotoxicity in human and rat primary hepatocytes was assessed using the CellTiter-Blue assay performed by commercial services (KaLy-Cell). The viability of HepG2 cells was monitored through the addition of 1 mM resazurin. Following 6 h incubation, the relative amount of reduced resazurin was detected in a fluorimeter and compared to the assay controls (vehicle: 0.1% DMSO and positive control: 10 µM puromycin).
`O=[N+]([O-])c1ccc2c(c1)Cc1ccccc1-2` [Compound 2NF]: the “Fold Increase” value stood at 49.1 and the “Mean (Revertant Numbers Per Plate)” value is 1375.7.

The data set is the same for the next values; noted with them: TA100, +S-9, 5 ug/plate, positive control.
As to `Nc1ccc2cc3ccccc3cc2c1` [AAN], the “Fold Increase” value is reported as 21.6 and the “Mean (Revertant Numbers Per Plate)” value is listed as 2606.

The same data set, now with this note: TA100, -S-9, 2 ug/plate, positive control.
`[N-]=[N+]=[N-].[Na+]` [NaN3]: the “Fold Increase” value turned out to be 9.7 and the “Mean (Revertant Numbers Per Plate)” value is 845.

Staying with this data set, now noted: TA102, +S-9, 20 ug/plate, positive control.
With `Nc1ccc2cc3ccccc3cc2c1` [AAN], the “Fold Increase” value amounted to 11 and the “Mean (Revertant Numbers Per Plate)” value is 2462.

Staying with this data set, now noted: TA102, -S-9, 0.2 ug/plate, positive control.
For the molecule `CO[C@@]12[C@H](COC(N)=O)C3=C(C(=O)C(C)=C(N)C3=O)N1C[C@@H]1N[C@@H]12` [MMC], the “Fold Increase” value was determined as 3.3.

Still in this data set, the particulars now being: TA1535, +S-9, 5 ug/plate, positive control.
With `Nc1ccc2cc3ccccc3cc2c1` [AAN], the “Fold Increase” value was 7.5 and the “Mean (Revertant Numbers Per Plate)” value was 173.3.

Staying with this data set, now noted: TA1535, -S-9, 2 ug/plate, positive control.
Take `[N-]=[N+]=[N-].[Na+]` [NaN3]: the “Fold Increase” value was found to be 26.6 and the “Mean (Revertant Numbers Per Plate)” value stood at 672.7.

Still in this data set, the particulars now being: TA1537, +S-9, 5 ug/plate, positive control.
Take `Nc1ccc2cc3ccccc3cc2c1` [AAN]: the “Fold Increase” value was 39.7 and the “Mean (Revertant Numbers Per Plate)” value amounted to 277.7.

Staying with this data set, now noted: TA1537, -S-9, 50 ug/plate, positive control.
As to `Nc1c2ccccc2nc2ccccc12` [AAC], the “Fold Increase” value worked out at 54.9 and the “Mean (Revertant Numbers Per Plate)” value came to 384.3.

In another data set the test system is P. falciparum NF54 asexual blood-stage parasites. Description: 72-h asexual blood-stage replication assay (SYBR Green). Type of data set: cell-based, Plasmodium falciparum. The settings on record: asexual blood stages NF54 parasites; read-out: IC50. As to the method:
Replication assays were performed using a SYBR Green method as described previously. Briefly, asynchronous parasites were diluted to 0.83% parasitemia, 3% hematocrit in 30 µl medium, and added to 30 µl of diluted compounds in medium (0.1% DMSO final concentration) in black 384-wells plates. After a 72-h incubation, 30 µl of SYBR Green diluted in lysis buffer was added according to the manufacturer’s protocol (Life Technologies). Fluorescence intensity was measured on a BioTek Synergy 2 Plate Reader after 1-h incubation and was normalized to a DMSO control (100% growth) and DHA- or epoxomicin-treatment (no growth). […] Parasite survival was assessed by flow cytometry on an Accuri C6 (BD Biosciences) with BD C6 Plus software using SYBR Green and MitoTracker Deep Red FM (Life Technologies) as nuclear stain and vital dye, respectively, and data were analyzed using FlowJo (10.5.0). […] Luminescence was measured after 72 h using the Renilla-Glo(R) Luciferase Assay System (Promega E2750) and the GlomAX® Discover Multimode Microplate Reader (Promega). The luminescence values were normalized to DMSO vehicle (100% growth) and 200 nM chloroquine-treated (no growth) samples as controls.
Dose-response assays were analyzed by a nonlinear regression using a four-parameter model and the least squares method to find the best fit. One-way Analysis of variance (ANOVA) was performed using the Bonferroni’s Multiple Comparison Test. For the majority of experiments, 2-4 biological replicates were performed. Typically, 2 replicates were performed for screening activities, and a minimum of 3 replicates are performed for other experiments unless stated otherwise.
One may read the IC50 as the concentration that inhibits the measured activity by half. For `Cc1cc(C(=O)N[C@@H](C)CNC(=O)[C@H](O)C(C)(C)CO)c(F)cc1F` [MMV893115], the IC50 came to 66 nM.
Take `C[C@@H](CNC(=O)[C@H](O)C(C)(C)CO)NC(=O)c1ccc(F)c(F)c1` [MMV1576731]: the half-maximal inhibitory concentration (IC50) was determined as 4.6 nM.
The same measure, in the same setting: the result for `C[C@@H](CNC(=O)C(=O)C(C)(C)CO)NC(=O)CCc1ccccc1F` [MMV1545786] reads 1000 nM.
For `C[C@@H](CNC(=O)[C@H](O)C(C)(C)CO)NS(=O)(=O)CCc1ccccc1` [MMV692748], the IC50 was more than 10000 nM.
Same read-out and setting: the result for `C[C@@H](CNC(=O)[C@H](O)C(C)(C)CO)NC(=O)c1cc(F)ccc1F` [MMV1576724] reads 7 nM; that for `C[C@H](CNC(=O)[C@@H](O)C(C)(C)CO)NC(=O)CCc1ccccc1F` [MMV884968], more than 1000 nM; that for `C[C@@H](CNC(=O)[C@H](O)C(C)(C)CO)NC(=O)c1csc2ccccc12` [MMV893338], 195 nM.
Still for that read-out and setting: the result for `C[C@@H](CNC(=O)[C@H](O)C(C)(C)CO)NC(=O)c1ccc(F)cc1` [MMV1542002] reads 82 nM; that for `C[C@@H](CNC(=O)[C@H](O)C(C)(C)CO)NC(=O)c1ccccc1C(F)(F)F` [MMV892613], more than 10000 nM.
Take `C[C@@H](CNC(=O)[C@H](O)C(C)(C)CO)NC(=O)c1cc2ccccc2[nH]1` [MMV893121]: the 50% inhibitory concentration (IC50) was 53 nM.
The same measure, in the same setting: the result for `Cc1ccc(C(=O)N[C@@H](C)CNC(=O)[C@H](O)C(C)(C)CO)cc1` [MMV1542100] reads 85 nM; that for `C[C@@H](CNC(=O)[C@H](O)C(C)(C)CO)NC(=O)c1cccc(F)c1F` [MMV1576723], 32.7 nM; that for `C[C@@H](CNC(=O)[C@H](O)C(C)(C)CO)NC(=O)c1ccc[nH]1` [MMV893345], more than 10000 nM.
`C[C@@H](CNC(=O)[C@H](O)C(C)(C)CO)NC(=O)c1c(F)cccc1F` [MMV693185]: the IC50 stood at 478 nM.
On the same count and under the same terms, the figure for `C[C@@H](CNC(=O)[C@H](O)C(C)(C)CO)NC(=O)c1coc2ccccc12` [MMV893337] is 3.9 nM; for `COc1cccc(C(=O)N[C@@H](C)CNC(=O)[C@H](O)C(C)(C)CO)c1` [MMV892811] it is 32 nM.
On the same count and under the same terms, the result for `COc1ccc(C(=O)N[C@@H](C)CNC(=O)[C@H](O)C(C)(C)CO)cc1` [MMV892810] reads 344 nM; that for `C[C@@H](CNC(=O)[C@H](O)C(C)(C)CNS(C)(=O)=O)NC(=O)CCc1ccccc1F` [MMV1545779], more than 1000 nM.
On the same count and under the same terms, the result for `C[C@@H](CNC(=O)[C@H](O)C(C)(C)CO)NC(=O)c1cccc(F)n1` [MMV892814] reads more than 10000 nM.
Regarding `C[C@@H](CNC(=O)[C@H](O)C(C)(C)CO)NC(=O)c1cccc(S(C)(=O)=O)c1` [MMV884969], the IC50 was more than 10000 nM.
On the same count and under the same terms, the figure for `C[C@@H](CNC(=O)[C@H](O)C(C)(C)CO)NC(=O)c1ccc(Cl)c(F)c1` [MMV1576725] is 56 nM; for `C[C@@H](CNC(=O)[C@H](O)C(C)(C)CO)NC(=O)c1cccc(C(F)(F)F)c1` [MMV892614] it is 143 nM; for `C[C@@H](CNC(=O)[C@H](O)C(C)(C)CO)NC(=O)c1cccc(Cl)c1F` [MMV977411] it is 12 nM.
In the case of `C[C@@H](CNC(=O)[C@H](O)C(C)(C)CO)NC(=O)c1cc2ccccc2o1` [MMV893335], the IC50 was found to be 12.5 nM.
Still for that read-out and setting: the result for `C[C@@H](CNC(=O)[C@H](O)C(C)(C)CO)NC(=O)c1cc2ccccc2s1` [MMV893336] reads 19.9 nM; that for `C[C@@H](CNC(=O)[C@H](O)C(C)(C)CO)c1nnc(CCc2ccccc2F)[nH]1` [MMV884788], 554 nM; that for `C[C@@H](CNC(=O)[C@H](O)C(C)(C)CO)NC(=O)c1ccc(Cl)cc1` [MMV892809], 103 nM.
On the same count and under the same terms, the figure for `C[C@@H](CNC(=O)[C@H](O)C(C)(C)CO)NC(=O)c1ccccc1F` [MMV154200] is 41 nM; for `C[C@@H](CNC(=O)[C@H](O)C(C)(C)CO)NC(=O)c1cccc(C#N)c1F` [MMV977410] it is 19 nM; for `COc1ccccc1C(=O)N[C@@H](C)CNC(=O)[C@H](O)C(C)(C)CO` [MMV892812] it is more than 10000 nM.
Still for that read-out and setting: the result for `C[C@@H](CNC(=O)[C@H](O)C(C)(C)CO)NC(=O)c1cc(Cl)c(Cl)cc1F` [MMV893655] reads 19.7 nM.
Take `CC(C)(CNC(=O)CCc1ccccc1F)NC(=O)[C@H](O)C(C)(C)CO` [MMV689261]: the IC50 is more than 10000 nM.
Turning to `C[C@@H](CNC(=O)[C@H](O)C(C)(C)CO)NC(=O)c1ccc(F)c(C#N)c1` [MMV977409], the IC50 amounted to 84 nM.
Still for that read-out and setting: the result for `C[C@@H](CNC(=O)[C@H](O)C(C)(C)CO)NC(=O)c1cc(Cl)c(F)cc1F` [MMV692009] reads 2.3 nM; that for `CC(C)(CNC(=O)[C@H](O)C(C)(C)CO)NC(=O)CCc1ccccc1F` [MMV689455], 1190 nM; that for `CC[C@@H](CNC(=O)[C@H](O)C(C)(C)CO)NC(=O)CCc1ccccc1F` [MMV692676], 122 nM.
On the same count and under the same terms, the result for `C[C@@H](CNC(=O)[C@H](O)C(C)(C)CO)NC(=O)c1ccc(F)c(Cl)c1` [MMV977407] reads 3.4 nM.
Still for that read-out and setting: the result for `CC(CNC(=O)C(C)(O)C(C)(C)CO)NC(=O)CCc1ccccc1F` (mixture of isomers) [MMV1545785] reads 1000 nM; that for `C[C@@H](CNC(=O)[C@@H](O)C(C)(C)CO)NC(=O)CCc1ccccc1F` [MMV884787], 235 nM; that for `C[C@@H](CNC(=O)[C@H](O)C(C)(C)CO)NC(=O)c1ccc(C(F)(F)F)cc1` [MMV892612], 132 nM.
With `CCC(CC)(CO)[C@@H](O)C(=O)NC[C@H](C)NC(=O)CCc1ccccc1F` [MMV884964], the half-maximal inhibitory concentration (IC50) is more than 1000 nM.
On the same count and under the same terms, the figure for `C[C@@H](CNC(=O)[C@H](O)C(C)(C)CO)NC(=O)c1cc(Cl)ccc1F` [MMV1576728] is 2.6 nM; for `C[C@@H](CNC(=O)[C@H](O)C(C)(C)CO)NC(=O)c1ccccc1Cl` [MMV892807] it is more than 10000 nM; for `C[C@@H](CNC(=O)[C@H](O)C(C)(C)CO)NC(=O)c1cccs1` [MMV893344] it is 18.2 nM.
The same measure, in the same setting: the figure for `C[C@H](CNC(=O)[C@H](O)C(C)(C)CO)NC(=O)CCc1ccccc1F` [MMV689260] is 210 nM; for `C[C@@H](CNC(=O)[C@H](O)C(C)(C)CO)NC(=O)c1ccc(C#N)cc1` [MMV884961] it is 535 nM; for `C[C@@H](CNC(=O)[C@H](O)C(C)(C)CO)NC(=O)c1cccc(Cl)c1` [MMV892808] it is 2.3 nM.
On the same count and under the same terms, the figure for `C[C@@H](CNC(=O)[C@H](O)C(C)(C)CO)NC(=O)c1cccc(N(C)C)c1` [MMV884970] is more than 10000 nM; for `C[C@@H](CNC(=O)[C@H](O)C(C)(C)CO)NC(=O)c1ccoc1` [MMV893339] it is 42 nM; for `C[C@@H](CNC(=O)[C@H](O)C(C)(C)CO)NC(=O)c1ccsc1` [MMV893340] it is 14.6 nM.
For `C[C@@H](CNC(=O)[C@H](O)C(C)(C)CO)NC(=O)c1c[nH]c2ccccc12` [MMV893375], the IC50 came out at 41 nM.
